Like-named read-outs stand apart in the source and are kept apart here.
Columns and labels:
[1] = system: human breast cancer MDA-MB-231 cell line; experiment: AlamarBlue cytotoxicity, BPBPA series, MDA-MB-231; assay type: cell-based; conditions: for IC50: Homo sapiens
Protocol: (§1) Cell culture methods. MCF-7, MDA-MB-231, and hFOB 1.19 cell lines were incubated employing DMEM (37° C.) and DMEM: F12 (34° C.) medium, respectively, in a 5% CO2. Cell lines were supplemented using 10% FBS and 1% Pen-Strep and medium exchange was performed twice a week. Cell passages were carried out at 80% confluency.
(§2) Cell-based assays. Cell lines were seeded in 96 well plates at a density of 5×10^3 cells/mL, cells were incubated for 24 h before treatment. Both cell lines were treated with 100 μL of BPBPA (0-400 μM), LET (0-200 μM), unloaded and loaded nano-Ca@BPBPA (0-50 μM). All cell-based assays were performed for 24, 48, and 72 h of treatment. Control groups were treated with media (DMEM or DMEM: F12) supplemented with 1% Pen-Strep. Then, the media was removed and replaced with 100 μL of 10% AlamarBlue® solution. The 96 well plates were incubated for 4 h before measurements. Then, the fluorescence was assessed at 560 nm of excitation and λmax 590 nm of emission. The cell viability (%) was evaluated by contrasting the percentage of live cells of the control groups with the cells treated with BPBPA, LET, unloaded and loaded nano-Ca@BPBPA. The half-maximal inhibitory concentration (IC50) was determined for BPBPA and letrozole employing the dose-response curves (% cell live vs. concentration). The relative cell live (% RCL) was assessed for the unloaded and loaded nano-Ca@BPBPA, utilizing LET as a control group. The IC50 and % RCL were plotted using the GraphPad Prism software vs. 9.3.0.
(§3) The cytotoxicity of BPBPA (control), LET (control), nano-Ca@BPBPA (control), and drug-loaded nano-Ca@BPBPA (experimental) was investigated employing the human breast cancer, MCF-7 and MDA-MB-231, and the human osteoblast, hFOB 1.19, cell lines. The human MCF-7 cell line represents an ER-positive breast cancer model with estrogen, progesterone, and glucocorticoid receptors.^1 While, the human MDA-MB-231 cells correspond to a model of ER-negative breast cancer. Both selected cancer cell lines can be implicated in the development and progress of bone metastases in patients.^40,41 The human fetal hFOB 1.19 cells represent a homogeneous osteoblast-like (non-cancerous) model commonly employed to assess osteoblast differentiation.^42 The cytotoxicity of these materials was evaluated by determining the IC50 and % RCL. […] Similar results were found for MDA-MB-231 and hFOB 1.19 cell lines treated with LET (IC50 >200 μM) at the same time points (Supporting Information).
(§4) Cell culture methods. MCF-7 and MDA-MB-231 were incubated employing DMEM media at 37° C. in 5% CO2. The hFOB 1.19 cell lines were incubated using DMEM: F12 at 34° C. in 5% CO2. Cell lines were supplemented using 10% FBS and 1% Pen-Strep. The media was exchanged twice per week. Cell passages were carried out at 80% confluency.
(§5) Seeding. Cell lines were seeded in 96 well plates at a density of […] cells/mL; cells were incubated for 24 h before each treatment.
(§6) Treatment. Cell lines were treated with 100 μL of BPBPA (0-400 μM), LET (0-200 μM), unloaded and loaded nano-Ca@BPBPA (0.5-50 μM). Control groups were treated with media (DMEM or DMEM: F12) supplemented with 1% Pen-Strep. All cell-based assays were performed after 24, 48, and 72 h of treatment and in triplicate.
(§7) AlamarBlue@assay. To determine the cell viability, the media was removed and replaced with 100 μL of 10% AlamarBlue® solution. The 96 well plates were incubated for 4 h before measurements. Then, the fluorescence was assessed at 560 nm of excitation and λmax 590 nm of emission.

[2] = system: human breast cancer MCF-7 cell line; experiment: AlamarBlue cytotoxicity, BPBPA series, MCF-7; assay type: cell-based
Protocol: as §1, §2, §3, §4, §5, §6, §7

[3] = system: human osteoblast hFOB 1.19 cell line; experiment: AlamarBlue cytotoxicity, BPBPA series, hFOB 1.19; assay type: cell-based; conditions: for IC50: Homo sapiens, Osteoblast
Protocol: as §1, §2, §3
Cell culture methods. MCF-7 and MDA-MB-231 were incubated employing DMEM media at 37° C. in 5% CO2. The hFOB 1.19 cell lines were incubated using DMEM: F12 at 34° C. in 5% CO2. […]
AlamarBlue@assay. […] Then, the fluorescence was assessed at 560 nm of excitation and λmax 590 nm of emission.

[4] = PBS pH 7.40
[5] = FaSSGF pH 1.60

## N#Cc1ccc(C(c2ccc(C#N)cc2)n2cncn2)cc1 [LET, letrozole]
[1]; 12.5 μM, 72 h
  % RCL: 99±1%
[1]; 50 μM, 24 h
  % RCL: ~86%
[1]; 50 μM, 48 h
  % RCL: ~83%
[1]; 50 μM, 72 h
  % RCL: ~82%
[1]; 24 h
  IC50: > 200 µM
[1]; 48 h
  IC50: > 200 µM
[1]; 72 h
  IC50: > 200 µM
[2]; 0.5 μM, 24 h
  % RCL: ~100%
[2]; 0.5 μM, 48 h
  % RCL: ~100%
[2]; 0.5 μM, 72 h
  % RCL: 88±5%
[2]; 1.6 μM, 72 h
  % RCL: 81%
[2]; 3.1 μM, 24 h
  % RCL: 99±2%
[2]; 3.1 μM, 48 h
  % RCL: 86±3%
[2]; 3.1 μM, 72 h
  % RCL: 78±1%
[2]; 6.3 μM, 24 h
  % RCL: 99±1%
[2]; 6.3 μM, 72 h
  % RCL: 75±3%
[2]; 12.5 μM, 72 h
  % RCL: 70±1%
[2]; Homo sapiens, MCF7, 72 h
  IC50: ~20 µM
[3]; 12.5 μM, 72 h
  % RCL: 100±1%
[3]; 24 h
  IC50: > 200 µM
[3]; 48 h
  IC50: > 200 µM
[3]; 72 h
  IC50: > 200 µM

## O=P(O)(O)C(O)(Cc1cccnc1)P(=O)(O)O [RISE, Monosodium risedronate hemipentahydrate]
[4]
  time to reach maximum dissolution: 30 min
[5]
  time to reach maximum dissolution: 1 min
